This test addresses human Nav1.7 (Homo sapiens (Human), UniProt Q15858). The test is described as follows: Nav 1.7 in vitro PatchXpress (PX) assay. In kind it is cell-based.

Where two headings read alike, the source gives them in different places.

Chain of human Nav1.7 (Q15858 whole entry): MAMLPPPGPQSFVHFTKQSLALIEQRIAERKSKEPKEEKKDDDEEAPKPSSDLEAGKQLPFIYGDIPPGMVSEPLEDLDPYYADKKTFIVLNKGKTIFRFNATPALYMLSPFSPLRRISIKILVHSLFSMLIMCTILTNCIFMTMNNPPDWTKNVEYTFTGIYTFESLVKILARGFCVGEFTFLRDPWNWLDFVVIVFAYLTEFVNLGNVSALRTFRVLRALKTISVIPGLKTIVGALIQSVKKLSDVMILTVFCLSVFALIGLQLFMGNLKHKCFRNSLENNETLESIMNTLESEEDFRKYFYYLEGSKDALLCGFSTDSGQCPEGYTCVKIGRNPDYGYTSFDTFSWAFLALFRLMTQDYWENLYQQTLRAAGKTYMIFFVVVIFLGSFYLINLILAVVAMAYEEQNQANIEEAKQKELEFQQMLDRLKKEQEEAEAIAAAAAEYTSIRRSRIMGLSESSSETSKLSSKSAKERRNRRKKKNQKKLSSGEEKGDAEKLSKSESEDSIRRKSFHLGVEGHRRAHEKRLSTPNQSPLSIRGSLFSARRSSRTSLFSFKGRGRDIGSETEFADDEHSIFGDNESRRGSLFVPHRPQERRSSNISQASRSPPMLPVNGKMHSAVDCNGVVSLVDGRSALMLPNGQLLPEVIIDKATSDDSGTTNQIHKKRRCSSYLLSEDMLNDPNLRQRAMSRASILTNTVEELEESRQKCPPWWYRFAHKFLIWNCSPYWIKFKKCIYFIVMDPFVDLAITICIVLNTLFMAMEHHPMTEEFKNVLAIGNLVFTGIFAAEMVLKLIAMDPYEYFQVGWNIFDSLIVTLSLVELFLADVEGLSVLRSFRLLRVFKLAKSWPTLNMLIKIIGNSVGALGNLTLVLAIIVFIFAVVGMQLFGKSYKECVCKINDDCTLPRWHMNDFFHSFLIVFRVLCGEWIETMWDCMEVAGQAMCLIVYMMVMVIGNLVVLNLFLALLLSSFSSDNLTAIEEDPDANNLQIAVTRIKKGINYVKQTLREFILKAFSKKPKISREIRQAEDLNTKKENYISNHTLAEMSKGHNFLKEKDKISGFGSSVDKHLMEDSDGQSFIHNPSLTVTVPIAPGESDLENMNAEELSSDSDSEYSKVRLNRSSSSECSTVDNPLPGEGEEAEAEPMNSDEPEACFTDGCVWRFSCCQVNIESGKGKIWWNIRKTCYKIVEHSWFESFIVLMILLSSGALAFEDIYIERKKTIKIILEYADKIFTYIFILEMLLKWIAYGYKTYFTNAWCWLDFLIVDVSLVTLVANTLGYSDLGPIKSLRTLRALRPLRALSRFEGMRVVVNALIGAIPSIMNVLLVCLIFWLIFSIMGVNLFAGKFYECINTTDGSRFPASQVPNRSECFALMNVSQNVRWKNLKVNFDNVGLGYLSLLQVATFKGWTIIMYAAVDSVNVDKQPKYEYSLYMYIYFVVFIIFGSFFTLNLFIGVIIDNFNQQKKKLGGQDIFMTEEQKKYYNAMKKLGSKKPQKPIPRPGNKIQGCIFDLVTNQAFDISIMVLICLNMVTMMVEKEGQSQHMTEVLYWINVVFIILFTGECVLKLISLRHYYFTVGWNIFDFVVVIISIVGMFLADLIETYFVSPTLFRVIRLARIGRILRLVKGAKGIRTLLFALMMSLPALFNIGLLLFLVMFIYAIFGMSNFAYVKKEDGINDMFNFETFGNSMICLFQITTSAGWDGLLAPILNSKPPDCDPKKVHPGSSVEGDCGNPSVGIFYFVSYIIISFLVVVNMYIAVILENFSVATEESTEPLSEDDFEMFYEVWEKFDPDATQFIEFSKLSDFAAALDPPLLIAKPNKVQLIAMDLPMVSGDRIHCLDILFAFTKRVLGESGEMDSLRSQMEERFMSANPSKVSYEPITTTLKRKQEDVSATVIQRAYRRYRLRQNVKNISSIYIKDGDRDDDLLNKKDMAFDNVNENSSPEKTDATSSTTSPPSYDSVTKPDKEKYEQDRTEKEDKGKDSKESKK

In the case of `COc1cc(C(=O)NS(C)(=O)=O)c(F)cc1-c1cnc(Oc2cc(Cl)c(Cl)cc2Cl)c(Cl)c1` [Example 739, 4-(5-chloro-6-(2,4,5-trichlorophenoxy)-3-pyridinyl)-2-fluoro-5-methoxy-N-(methylsulfonyl)benzamide], the IC50 (in general, the concentration needed to halve the response being measured) (in-vitro Nav 1.7 PX data) stood at 0.051 µM.

Take `COc1ccc(Cl)c(Oc2ncc(-c3ccc(C(=O)NS(C)(=O)=O)cc3OC)cc2Cl)c1` [Example 369, 4-(5-chloro-6-(2-chloro-5-methoxyphenoxy)-3-pyridinyl)-3-methoxy-N-(methylsulfonyl)benzamide]: the midpoint of inhibition, the IC50, lay at 0.0905 µM.

`Cc1cccc(Cl)c1Oc1ncc(-c2ccc(C(=O)NS(C)(=O)=O)cc2OC2COC2)cc1Cl` [Example 426, 4-(5-chloro-6-(2-chloro-6-methylphenoxy)-3-pyridinyl)-N-(methylsulfonyl)-3-(3-oxetanyloxy)benzamide] registered an IC50 of 0.075 µM.

For the setting “in-vitro Nav 1.7 PX data”, `COc1cc(C(=O)NS(C)(=O)=O)c(F)cc1-c1cnc(O[C@H](C)c2ccc(F)cc2Cl)c(Cl)c1` [Example 761, 4-(5-chloro-6-((1R)-1-(2-chloro-4-fluorophenyl)ethoxy)-3-pyridinyl)-2-fluoro-5-methoxy-N-(methylsulfonyl)benzamide] came in with an IC50 of 0.0821 µM.

In turn, `CC1(Oc2ncc(-c3cc(F)c(C(=O)NS(C)(=O)=O)cc3Cl)cc2Cl)CCC1` [Example 602, 5-chloro-4-(5-chloro-6-((1-methylcyclobutyl)oxy)-3-pyridinyl)-2-fluoro-N-(methylsulfonyl)benzamide] displayed a half-inhibitory concentration (IC50) of 0.1 µM.

`Cc1cc(C(=O)NS(C)(=O)=O)c(F)cc1-c1cnc(O[C@H](C)c2ccccc2C(F)(F)F)c(Cl)c1` [Example 688, 4-(5-chloro-6-((1R)-1-(2-(trifluoromethyl)phenyl)ethoxy)-3-pyridinyl)-2-fluoro-5-methyl-N-(methylsulfonyl)benzamide, 4-(5-chloro-6-((1S)-1-(2-(trifluoromethyl)phenyl)ethoxy)-3-pyridinyl)-2-fluoro-5-methyl-N-(methylsulfonyl)benzamide] came in with an IC50 of 0.0863 µM.

Compound `COc1cc(C(=O)NS(C)(=O)=O)c(F)cc1-c1cnc(Oc2cccc(Cl)c2F)c(Cl)c1` [Example 745, 4-(5-chloro-6-(3-chloro-2-fluorophenoxy)-3-pyridinyl)-2-fluoro-5-methoxy-N-(methylsulfonyl)benzamide] displayed an IC50 (in-vitro Nav 1.7 PX data) of 0.0725 µM.

Where the note is “in-vitro Nav 1.7 PX data”, `COc1cc(C(=O)NS(C)(=O)=O)c(F)cc1-c1cnc(Oc2cc(F)cc(F)c2)c(Cl)c1` [Example 740, 4-(5-chloro-6-(3,5-difluorophenoxy)-3-pyridinyl)-2-fluoro-5-methoxy-N-(methylsulfonyl)benzamide] returned a concentration for half-maximal inhibition (IC50) of 0.087 µM.

For the setting “in-vitro Nav 1.7 PX data”, “4-(3-Chloro-4′-Methoxy-2′-Methyl-[2,3′-Bipyridin]-5-yl)-2-Fluoro-5-Methyl-N-(Methylsulfonyl)Benzamide [Example 839]” registered an IC50 of 12.8 µM.

`COc1cc(C(=O)NS(=O)(=O)N2CCC2)ccc1-c1cnc(Oc2cc(Cl)cc(Cl)c2)c(Cl)c1` [Example 773, N-(1-azetidinylsulfonyl)-4-(5-chloro-6-(3,5-dichlorophenoxy)-3-pyridinyl)-3-methoxybenzamide] yielded an IC50 (in-vitro Nav 1.7 PX data) of 0.114 µM.

`CS(=O)(=O)NC(=O)c1cc(OC(F)F)c(-c2cnc(Oc3cc(Cl)cc(Cl)c3)c(Cl)c2)cc1F` [Example 784, 4-(5-chloro-6-(3,5-dichlorophenoxy)-3-pyridinyl)-5-(difluoromethoxy)-2-fluoro-N-(methylsulfonyl)benzamide]: for the setting “in-vitro Nav 1.7 PX data”, half-maximal inhibition (IC50) required 0.014 µM.

Compound `COc1cc(C(=O)NS(C)(=O)=O)ccc1-c1cnc(COc2ccc(C#N)cc2)c(Cl)c1` [Example 819, 4-(5-Chloro-6-((4-Cyanophenoxy)Methyl)-Pyridin-3-yl)-3-Methoxy-N-(Methylsulfonyl)Benzamide] had an IC50 (in-vitro Nav 1.7 PX data) of 6.56 µM.

As for `COc1cc(C(=O)NS(C)(=O)=O)c(F)cc1-c1cnc(Oc2ccc(Cl)c(Cl)c2)c(Cl)c1` [Example 755, 4-(5-chloro-6-(3,4-dichlorophenoxy)-3-pyridinyl)-2-fluoro-5-methoxy-N-(methylsulfonyl)benzamide], the IC50 (in-vitro Nav 1.7 PX data) came out at 0.0515 µM.

In the case of `COc1cc(C(=O)NS(C)(=O)=O)c(F)cc1-c1cnc(Oc2cc(F)c(Cl)c(F)c2)c(Cl)c1` [Example 763, 4-(5-chloro-6-(4-chloro-3,5-difluorophenoxy)-3-pyridinyl)-2-fluoro-5-methoxy-N-(methylsulfonyl)benzamide], the IC50 (in-vitro Nav 1.7 PX data) came out at 0.0471 µM.

The compound `CC[C@@H](Oc1ncc(-c2cc(F)c(C(=O)NS(C)(=O)=O)cc2C)cc1Cl)c1ccc(F)cc1` [Example 639, 4-(5-chloro-6-(((1R)-1-(4-fluorophenyl)propyl)oxy)-3-pyridinyl)-2-fluoro-5-methyl-N-(methylsulfonyl)benzamide, 4-(5-chloro-6-(((1S)-1-(4-fluorophenyl)propyl)oxy)-3-pyridinyl)-2-fluoro-5-methyl-N-(methylsulfonyl)benzamide] gave a half-maximal inhibitory concentration (IC50) of 0.0704 µM.

Compound `COc1cc(C(=O)NS(C)(=O)=O)ccc1-c1cnc(Oc2ccc(C)c(Cl)c2)c(Cl)c1` [Example 329, 4-(5-chloro-6-(3-chloro-4-methylphenoxy)-3-pyridinyl)-3-methoxy-N-(methylsulfonyl)benzamide] showed a half-maximal inhibitory concentration (IC50) of 0.0847 µM.

For the setting “in-vitro Nav 1.7 PX data”, `CC[C@H](Oc1ncc(-c2cc(F)c(C(=O)NS(C)(=O)=O)cc2OC)cc1Cl)C(F)(F)F` [Example 768, 4-(5-chloro-6-(((1S)-1-(trifluoromethyl)propyl)oxy)-3-pyridinyl)-2-fluoro-5-methoxy-N-(methylsulfonyl)benzamide] gave an IC50 of 0.0955 µM.

The compound `Cc1ccc(Cl)c(Oc2ncc(-c3ccc(C(=O)NS(C)(=O)=O)cc3OC3COC3)cc2Cl)c1` [Example 423, 4-(5-chloro-6-(2-chloro-5-methylphenoxy)-3-pyridinyl)-N-(methylsulfonyl)-3-(3-oxetanyloxy)benzamide] displayed an IC50 of 0.0386 µM.

`Cc1cc(C(=O)NS(C)(=O)=O)c(F)cc1-c1cnc(-c2ccc(Cl)c(Cl)c2)c(Cl)c1` [Example 835, 4-(5-chloro-6-(3,4-dichlorophenyl)-3-pyridinyl)-2-fluoro-5-methyl-N-(methylsulfonyl)benzamide] yielded a concentration for half-maximal inhibition (IC50) (in-vitro Nav 1.7 PX data) of 0.167 µM.

`CC(C)COc1ncc(-c2cc(F)c(C(=O)NS(C)(=O)=O)cc2F)cc1-c1cc(F)cc(F)c1` [Example 838, 4-(5-(3,5-difluorophenyl)-6-(2-methylpropoxy)-3-pyridinyl)-2,5-difluoro-N-(methylsulfonyl)benzamide] returned an IC50 (in-vitro Nav 1.7 PX data) of 0.642 µM.

Compound `COc1cc(C(=O)NS(C)(=O)=O)ccc1-c1cnc(Oc2ccc(Cl)cc2Cl)c(C#N)c1` [Example 691, 4-(5-cyano-6-(2,4-dichlorophenoxy)-3-pyridinyl)-3-methoxy-N-(methylsulfonyl)benzamide] registered an IC50 of 0.0838 µM.

As to `COc1cc(C(=O)NS(C)(=O)=O)c(F)cc1-c1cnc(Oc2ccc(C)c(Cl)c2)c(Cl)c1` [Example 751, 4-(5-chloro-6-(3-chloro-4-methylphenoxy)-3-pyridinyl)-2-fluoro-5-methoxy-N-(methylsulfonyl)benzamide], inhibition (in-vitro Nav 1.7 PX data) was half-maximal at 0.0983 µM (IC50).

As for `CS(=O)(=O)NC(=O)c1cc(Cl)c(-c2cnc(OCC3CCCC3)c(Cl)c2)cc1F` [Example 600, 5-chloro-4-(5-chloro-6-(cyclopentylmethoxy)-3-pyridinyl)-2-fluoro-N-(methylsulfonyl)benzamide], the midpoint of inhibition, the IC50, lay at 0.0919 µM.

Compound `Cc1cc(C(=O)NS(C)(=O)=O)c(F)cc1-c1ccc(Cl)c(C(F)(F)F)c1` [Example 806, 4′-Chloro-5-Fluoro-2-Methyl-N-(Methylsulfonyl)-3′-(Trifluoromethyl)-4-Biphenylcarboxamide] came in with an IC50 (in-vitro Nav 1.7 PX data) of 0.618 µM.

Compound `COc1cc(C(=O)NS(C)(=O)=O)c(F)cc1-c1cnc(O[C@@H](C)CC(C)C)c(Cl)c1` [Example 726, 4-(5-chloro-6-(((1S)-1,3-dimethylbutyl)oxy)-3-pyridinyl)-2-fluoro-5-methoxy-N-(methylsulfonyl)benzamide] yielded an IC50 (in-vitro Nav 1.7 PX data) of 0.0805 µM.

Regarding `C[C@H](Oc1ncc(-c2ccc(C(=O)NS(C)(=O)=O)cc2OC(F)F)cc1Cl)c1ccccc1` [Example 457, 4-(5-chloro-6-((1S)-1-phenylethoxy)-3-pyridinyl)-3-(difluoromethoxy)-N-(methylsulfonyl)benzamide], the IC50 is 0.08 µM.

For the compound `COc1nccc(C)c1-c1cc(C(=O)NS(C)(=O)=O)ccc1-c1cnc(OCC(C)C)c(Cl)c1` (single isomer, unassigned) [Example 821, 4-(5-Chloro-6-Isobutoxypyridin-3-yl)-3-(2-Methoxy-4-Methylpyridin-3-yl)-N-(Methylsulfonyl)Benzamide], the midpoint of inhibition (in-vitro Nav 1.7 PX data), the IC50, lay at 32 µM.

For the compound `Cc1cc(C(=O)NS(C)(=O)=O)c(F)cc1-c1cnc(Oc2ccc(C(F)(F)F)c(F)c2)c(Cl)c1` [Example 671, 4-(5-chloro-6-(3-fluoro-4-(trifluoromethyl)phenoxy)-3-pyridinyl)-2-fluoro-5-methyl-N-(methylsulfonyl)benzamide], the 50% inhibitory concentration (IC50) is 0.123 µM.

As for `COc1cc(C(=O)NS(C)(=O)=O)c(F)cc1-c1cnc(O[C@@H]2CC[C@H]2C)c(Cl)c1` [Example 733, 4-(5-chloro-6-(((1R,2R)-2-methylcyclobutyl)oxy)-3-pyridinyl)-2-fluoro-5-methoxy-N-(methylsulfonyl)benzamide, 4-(5-chloro-6-(((1S,2S)-2-methylcyclobutyl)oxy)-3-pyridinyl)-2-fluoro-5-methoxy-N-(methylsulfonyl)benzamide], the IC50 (in-vitro Nav 1.7 PX data) came out at 0.22 µM.

For `Cc1cc(C(=O)NS(C)(=O)=O)c(F)cc1-c1ccc(C(F)(F)F)c(Cl)c1` [Example 807, 3′-chloro-5-fluoro-2-methyl-N-(methylsulfonyl)-4′-(trifluoromethyl)-4-biphenylcarboxamide], 0.413 µM corresponded to half-maximal inhibition (in-vitro Nav 1.7 PX data) (IC50).

The compound `Cc1c(Cl)cccc1Oc1ncc(-c2cc(F)c(C(=O)NS(C)(=O)=O)cc2OC(F)F)cc1Cl` [Example 780, 4-(5-chloro-6-(3-chloro-2-methylphenoxy)-3-pyridinyl)-5-(difluoromethoxy)-2-fluoro-N-(methylsulfonyl)benzamide] returned an IC50 (in-vitro Nav 1.7 PX data) of 0.0445 µM.

Turning to `Cc1ccc(Cl)c(Oc2ncc(-c3ccc(C(=O)NS(C)(=O)=O)cc3OC(F)F)cc2Cl)c1` [Example 462, 4-(5-chloro-6-(2-chloro-5-methylphenoxy)-3-pyridinyl)-3-(difluoromethoxy)-N-(methylsulfonyl)benzamide], the IC50 was determined as 0.0683 µM.

These data come from patent US9663508B2, “Biaryl acyl-sulfonamide compounds as sodium channel inhibitors” (AMGEN INC., priority 2013, dated 2017).
